Results as given in patent US8563013B2, “Systems and methods for delivering a fluid drug” (Janssen Biotech, Inc., priority 2007, dated 2013).

Assay: Light-induced degradation of a carbidopa-containing fluid formulation
Assay type: physicochemical
Conditions: fluid formulation having carbidopa; visible light with wavelengths in the range of about 400 nm to about 550 nm
Description: In some embodiments, the reservoir, and/or other portions of a dosing container, can be adapted to hinder exposure of a contained fluid from portions of a light spectrum, which can be capable of degrading or rendering one or more components of a fluid ineffective. […] Accordingly, if a container is adapted to hinder a carbidopa-containing fluid from being exposed to at least wavelengths in about the 400 nm to about 550 nm range, preservation of the carbidopa can be enhanced. As well, other embodiments can utilize other techniques, in combination or alone, which effectively reduce degradation of a carbidopa-containing fluid in the presence of visible light, such as adding a dye to the carbidopa-containing fluid (e.g., FD&C Yellow 6) to absorb the undesired light components. Other techniques, including ones familiar to those skilled in the art, can also be used.

C[C@@](Cc1ccc(O)c(O)c1)(NN)C(=O)O [carbidopa]
degradation on exposure to light: found to degrade
